{"source": "ChEMBL document CHEMBL5728233", "about": "“PSMA imaging agents” (2021)", "target": "Glutamate carboxypeptidase 2 (Homo sapiens, UniProt Q04609)", "sequence (Q04609 whole entry)": "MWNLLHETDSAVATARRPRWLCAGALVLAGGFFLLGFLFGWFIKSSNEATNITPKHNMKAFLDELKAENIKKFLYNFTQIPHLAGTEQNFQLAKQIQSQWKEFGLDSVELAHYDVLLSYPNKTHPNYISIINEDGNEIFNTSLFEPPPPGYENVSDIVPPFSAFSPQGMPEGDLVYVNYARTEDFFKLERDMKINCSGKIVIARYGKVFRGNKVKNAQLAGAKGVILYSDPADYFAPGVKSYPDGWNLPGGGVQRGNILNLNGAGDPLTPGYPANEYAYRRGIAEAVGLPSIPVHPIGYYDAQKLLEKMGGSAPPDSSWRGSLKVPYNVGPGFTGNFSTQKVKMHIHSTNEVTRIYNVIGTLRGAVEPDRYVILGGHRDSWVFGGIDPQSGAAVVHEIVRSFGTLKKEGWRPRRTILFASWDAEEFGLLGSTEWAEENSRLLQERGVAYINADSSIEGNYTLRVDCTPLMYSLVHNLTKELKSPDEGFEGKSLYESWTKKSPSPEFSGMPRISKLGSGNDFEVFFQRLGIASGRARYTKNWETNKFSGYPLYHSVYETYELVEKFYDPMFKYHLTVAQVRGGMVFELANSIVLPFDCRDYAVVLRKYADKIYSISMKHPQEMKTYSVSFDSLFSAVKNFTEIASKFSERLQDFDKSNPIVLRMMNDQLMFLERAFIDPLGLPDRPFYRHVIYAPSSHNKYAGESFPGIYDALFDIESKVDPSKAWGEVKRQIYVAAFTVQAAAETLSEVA", "assay": "Enzymatic Assay for In Vitro Evaluation of PSMA Inhibitors: The inhibitory activity of all compounds was determined using a fluorescent assay of human PSMA activity. The enzyme used in the assay was purchased from R&D Systems and stored at −80° C. The PSMA activity was assayed in a two-step process. In the first step, aliquots of enzyme (0.2 μg/mL) were incubated for 1 h at 37° C. in 50 mM HEPES, 0.1 M NaCl, pH 7.5, in the presence of 20 μM NAAG and the given inhibitor, in a volume of 250 μL, to allow for the accumulation of glutamate produced in the PSMA reaction. In the second step, the amount of accumulated glutamate was measured using the OPA reaction, and the fluorescence was read with a SpectraMax fluorescent plate reader using excitation at 330 nm and emission at 450 nm. The final Ki values for each inhibitor were calculated from the respective IC50 values using the Cheng and Prusoff equation."}
{"smiles": "CN(C(=O)N[C@@H](CCC(=O)O)C(=O)O)[C@@H](CCCCNC(=O)CCCCCn1cc(CCCF)nn1)C(=O)O", "values": [{"measurement": "Ki", "value": 625, "unit": "nM"}]}
